Test results as given in patent publication US8236809B2, “Substituted 1,2,3-triazolopyrimidines for the inhibition of NAD(P)H oxidases and platelet activation” (Vasopharm GmbH, priority 2004, dated 2012).

Legend:
[1] = biological target: NAD(P)H oxidases (NOX) in HL-60 cells (Homo sapiens, UniProt P04839); test: Assay of NOX activity: cytochrome C reduction in PMA-stimulated differentiated HL-60 cells; assay type: cell-based; settings: HL-60; DPI final conc. 10 μM, control inhibitor; 'usually'; read-out: Residual activity of DPI-treated cells (NOX activity as % of the activity in PMA-stimulated control cells)
Procedure: (§1) Measurement of cytochrome C-reduction was used to assess the NOX-activity in HL-60 cells.
(§2) The human acute myeloid leukemia cell line HL-60 (ECACC 98070106) was cultured in RPMI 1640 (Biochrom, Berlin, Germany) supplemented with 5% heat-inactivated calf serum, 2 mM glutamine (GLUTAMAX, Invitrogen, Karlsruhe, Germany), 100 U/ml penicillin (Sigma, Taufkirchen, Germany), and 100 μg/ml streptomycin (Sigma, Taufkirchen, Germany) at 37° C. under a humidified atmosphere of 5% CO2. Cells were maintained at 0.1−2.0×10^6 cells/ml. To induce myeloid differentiation, the cells were seeded to a density of 0.5×10^6 cells/ml and cultivated for 6 days in medium containing 1.25% (v/v) dimethylsulfoxide (DMSO). […]
(§3) E550 and E540 were measured once before stimulation of the cells on a micro-plate reader (Multiskan Spektrum, Thermo Electron Corporation, Dreieich, Germany). E540 was the isosbestic point and used to normalize absorbance at 550 nm (E550/E540). […]
(§4) The plate was shaken for 10 sec in the micro-plate reader and then incubated at 37° C. under a humidified atmosphere of 5% CO2. E550 and E540 were measured after 60 and 120 min.
(§5) For calculation, the absorbance at 550 nm was normalized to absorbance at the isosbestic point at 540 nm for each individual well. […] NOX-activities were expressed as % of the activity in PMA-stimulated control cells. […]

[2] = tested on: platelets; test: Inhibition of thrombin-induced (TRAP-6) platelet activation: P-Selectin expression on washed platelets, flow cytometry; assay type: cell-based; settings: Homo sapiens, 5 μmol/l compound, 1 min pre-incubation, washed platelets stimulated 2 min with TRAP-6, read-out: % Inhibition of activation (percent reduction of TRAP-6 induced P-Selectin expression)
Procedure: Expression of P-Selectin on the surface of platelets was used as a marker of platelet activation.
All experiments were performed with washed platelets (PRP). Fresh venous blood from healthy volunteers (40 ml) was collected into 10 ml of 5-fold CCD-solution (7 mM citric acid, 100 mM trisodium citrate, 140 mM glucose, 15 mM EGTA as anti-coagulant, pH 6.5). Platelet rich plasma was prepared by centrifugation at 300 g for 20 min. The supernatant was collected and incubated for 10 min at room temperature. Platelets were pelleted from the supernatant by a second centrifugation step at 500 g for 20 min. The pellet was resuspended in 5 ml HEPES buffer (145 in M NaCl, 5 mM KCl, 1 in M MgCl2, 10 mM glucose, 10 mM HEPES, pH 7.4). Platelet concentration was adjusted to 3×10^8 platelets/ml with HEPES buffer.
Washed platelets (0.2 ml) were silenced for 1 h at room temperature in siliconised reaction tubes. After pre-incubation with compounds of example 1-11 for 1 min the washed platelets were stimulated for 2 min with thrombin receptor activating peptide (TRAP-6, BACHEM Biochemicals, Heidelberg, Germany).
As a positive control, 0.2 ml of washed platelets were pre-incubated with 10 μM of the NO-releasing compound sodium nitroprussid (SNP, Sigma, Deisenhofen).
After incubation, 20 μl of the sample was pipetted to 10 μl of FITC-labelled anti-CD62P antibody (DAKO, Glostrup, Denmark) and incubated for 15 min in the dark. After incubation the samples were diluted with 1.5 ml of phosphate buffered saline and immediately measured on a cytometer.
For background substraction, one sample was incubated with 10 μl of FITC-labelled un-specific mouse IgG1 (DAKO, Glostrup, Denmark).
For cytometry the Becton-Dickinson FACS-Calibur instrument (settings: FSC: E00; SSC: 337 V; FL-1:600 V) was used. For each measurement 20000 cells were analysed. Results were obtained as mean fluorescence intensity (MFI) calculated using the CellQuest program (Ver. 1.0; Becton-Dickinson).
Inhibition of platelet activation is given as percent reduction of TRAP-6 induced P-Selectin expression in the presence of 5 μmol/l of examples 1-11: […]

[3] = tested on: NAD(P)H oxidases (NOX) in HL-60 cells; test: Assay of NOX activity: cytochrome C reduction in PMA-stimulated differentiated HL-60 cells; assay type: cell-based, human; settings: 100 U/ml superoxide dismutase, used as a control in some experiments
Procedure: as §1, §2, §3, §4, §5

Sequence of NAD(P)H oxidases (NOX) in HL-60 cells (Homo sapiens, UniProt P04839) (P04839 whole entry): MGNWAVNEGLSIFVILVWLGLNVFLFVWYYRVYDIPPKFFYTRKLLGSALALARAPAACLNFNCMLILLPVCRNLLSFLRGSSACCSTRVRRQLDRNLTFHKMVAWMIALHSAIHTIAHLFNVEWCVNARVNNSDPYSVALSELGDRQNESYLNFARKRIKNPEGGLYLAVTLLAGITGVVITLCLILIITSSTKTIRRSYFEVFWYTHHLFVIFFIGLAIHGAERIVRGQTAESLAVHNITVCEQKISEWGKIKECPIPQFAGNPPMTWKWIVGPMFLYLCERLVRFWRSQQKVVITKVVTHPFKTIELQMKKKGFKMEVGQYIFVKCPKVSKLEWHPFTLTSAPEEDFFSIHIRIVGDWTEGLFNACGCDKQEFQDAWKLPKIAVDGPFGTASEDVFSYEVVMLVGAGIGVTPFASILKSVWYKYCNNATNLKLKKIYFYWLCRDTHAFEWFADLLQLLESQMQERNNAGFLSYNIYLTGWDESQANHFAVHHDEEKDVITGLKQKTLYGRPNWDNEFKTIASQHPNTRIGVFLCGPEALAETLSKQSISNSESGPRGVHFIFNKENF

| Compound | inhibition at 5 µM [2] [%] | other results |
| --- | --- | --- |
| c1ccc2c(c1)[I+]c1ccccc1-2 [DPI, Diphenyleneiodonium chloride] |  | activity at 10 µM [1]: < 10% |
| c1ccc(Cn2nnc3c(Sc4nc5ccccc5o4)ncnc32)cc1 [Example 1, 3-benzyl-7-(2-benzoxazolyl)thio-1,2,3-triazolo[4,5-d]pyrimidine] | 49 |  |
| c1ccc(Cn2nnc3c(Sc4ccccn4)ncnc32)cc1 [Example 2, 3-benzyl-7-(2-pyridyl)thio-1,2,3-triazolo-[4,5-d]pyrimidine] | 34 |  |
| c1ccc(Cn2nnc3c(Sc4ncco4)ncnc32)cc1 [Example 3, 3-benzyl-7-(2-oxazolyl)thio-1,2,3-triazolo[4,5-d]pyrimidine] | 55 |  |
| c1ccc(Cn2nnc3c(Sc4nccs4)ncnc32)cc1 [Example 4, 3-benzyl-7-(2-thiazolyl)thio-1,2,3-triazolo[4,5-d]pyrimidine] | 45 |  |
| c1ccc(Cn2nnc3c(Sc4ncc[nH]4)ncnc32)cc1 [Example 5, 3-benzyl-7-(2-imidazolyl)thio-1,2,3-triazolo[4,5-d]pyrimidine] | 21 |  |
| Cc1nc(Sc2nc3ccccc3o2)c2nnn(Cc3ccccc3)c2n1 [Example 6, 3-benzyl-7-(2-benzoxazolyl)thio-5-methyl-1,2,3-triazolo[4,5-d]pyrimidine] | 39 |  |
| Cn1nnc2c(Sc3nc4ccccc4o3)ncnc21 [Example 8, 7-(2-benzoxazolyl)thio-3-methyl-1,2,3-triazolo[4,5-d]pyrimidine] | 38 |  |
| c1ccc(-n2nnc3c(Sc4nc5ccccc5o4)ncnc32)cc1 [Example 9, 7-(2-benzoxazolyl)thio-3-phenyl-1,2,3-triazolo[4,5-d]pyrimidine] | 44 |  |
| COc1ccc(Cn2nnc3c(Sc4nc5ccccc5o4)ncnc32)cc1 [Example 10, 7-(2-benzoxazolyl)thio-3-p-methoxybenzyl-1,2,3-triazolo[4,5-d]pyrimidine] | 60 |  |
| Clc1ccccc1Cn1nnc2c(Sc3nc4ccccc4o3)ncnc21 [Example 11, 7-(2-benzoxazolyl)thio-3-o-chlorobenzyl-1,2,3-triazolo[4,5-d]pyrimidine] | 80 |  |
| SOD: superoxide dismutase from bovine erythrocytes, EC1.15.1.1, used as a control |  | Inhibition of the signal by SOD [3]: > 95% |
